According to patent US20260191815A1, “THIOACRYLAMIDE DERIVATIVES FOR USE IN THE PREVENTION OR TREATMENT OF LIVER FIBROSIS” (CMR CUREDIAB METABOLIC RESEARCH GMBH, priority 2022, published 2026):

Tests used:
[1] = system: caspase 3/7 activity in primary human hepatocytes; test: Caspase 3/7 activity provoked by palmitate in primary human hepatocytes; format: cell-based
Protocol: (§1) The potential protective effect of HK1 and HK3 on caspase 3/7 activity in HepG2 cells and primary human hepatocytes was analysed.
(§2) HepG2 cells were obtained from Merck (Darmstadt, Germany) (ECACC-certified), while primary human hepatocytes were obtained from Thermo Fisher Scientific (Waltham, MA, USA), and all were cultured according to the instructions of the respective manufacturers. During experiments, cells were cultured in serum-free medium. Unless otherwise stated, cells were treated with 200 μM bovine serum albumin (BSA)-conjugated palmitate (Cayman Chemicals, Ann Arbor, MI) alone or in combination with 10 μM HK1 (Taros Chemicals GmbH & Co. KG, Dortmund, Germany) and HK3 (Taros Chemicals GmbH & Co. KG, Dortmund, Germany) 30 min prior to palmitate exposure for 24 hours. The vehicle BSA was used according to the palmitate concentration and DMSO according to HK1 and HK3 concentration. 2 μM Staurosporine (Abcam, Cambridge, GB) was used as a positive and 100 μM Caspase 3/7 inhibitor (CI) (Cayman Chemicals) as a negative control.
(§3) Differences were analysed by one-way ANOVA.

[2] = system: caspase 3/7 activity in HepG2 cells; test: Caspase 3/7 activity provoked by palmitate in HepG2 cells; format: cell-based
Protocol: as §1, §2, §3
A hepatoprotective effect was determined as described in Example 4. A treatment was performed with HK1, HK2, HK3, HK4 or HK5 (100 nM) either alone or in combination with palmitate (200 μM).
Differences were analysed by one-way ANOVA, n=4.

[3] = system: leukaemia inhibitory factor (LIF) secretion by LX2 cells; test: Olink Inflammation immunoassay of LX2 supernatants: LIF; format: cell-based, human; conditions: 5 ng/ml TGF-β1
Protocol: (§4) The human hepatic stellate cell line LX2 was purchased from Merck. The cells were used up to passage ten and incubated under sterile conditions at 37° C. and 5% CO2. The cells were cultivated in medium containing Dulbecco's Modified Eagle's Medium with 4.5 g/l glucose (ThermoFisher), 4 mmol/l glutamine (ThermoFisher), 2% fetal bovine serum (FBS) (Merck), 100 U/ml penicillin and 100 μg/ml streptomycin (Merck). After 2 days, LX2 cells were starved for FBS for 24 h and then pretreated with 10 μM HK1 (Taros Chemicals GmbH & Co. KG) or 10 μM HK3 (Taros Chemicals GmbH & Co. KG) for 30 min. Subsequently, 5 ng/ml recombinant TGF-β1 (R&D Systems, Minneapolis, MN, USA) was added to the hepatic stellate cell cultures for 24 h. LX2 cells were also incubated with 5 ng/ml TGF-β1 alone as positive control for the hepatic stellate cell activation. […]
(§5) LX2 cells were cultured and treated as described in Example 1. […] This protein quantification method is based on a proximity extension assay technology, which combines a dual-recognition immunoassay using two matched antibodies labelled with DNA oligonucleotides, with a polymerase chain reaction (PCR) amplification and a microfluidic quantitative real-time PCR as readout. […]
(§6) Differences were analysed by one-way ANOVA followed by the Tukey method as correction for multiple testing.

[4] = system: fibronectin 1 (FN1) protein in LX2 cells; test: Simple Western of FN1 protein in TGF-β1-stimulated LX2 hepatic stellate cells; format: cell-based, human; conditions: 5 ng/ml TGF-β1, 24 h, LX2 cells
Protocol: (§7) The human hepatic stellate cell line LX2 was purchased from Merck. The cells were used up to passage ten and incubated under sterile conditions at 37° C. and 5% CO2. The cells were cultivated in medium containing Dulbecco's Modified Eagle's Medium with 4.5 g/l glucose (ThermoFisher), 4 mmol/l glutamine (ThermoFisher), 2% fetal bovine serum (FBS) (Merck), 100 U/ml penicillin and 100 μg/ml streptomycin (Merck). After 2 days, LX2 cells were starved for FBS for 24 h and then pretreated with 10 μM HK1 (Taros Chemicals GmbH & Co. KG) or 10 μM HK3 (Taros Chemicals GmbH & Co. KG) for 30 min. Subsequently, 5 ng/ml recombinant TGF-β1 (R&D Systems, Minneapolis, MN, USA) was added to the hepatic stellate cell cultures for 24 h. LX2 cells were also incubated with 5 ng/ml TGF-β1 alone as positive control for the hepatic stellate cell activation. Recombinant TGF-β1 was dissolved in sterile 4 mmol/l HCl (Merck) containing 0.1% bovine serum albumin (Roth Karlsruhe, Germany) as carrier protein. HK1 and HK3 were dissolved in sterile dimethyl sulfoxide (DMSO) (Sigma-Aldrich, Munich, Germany). Stimulations with 10 μM HK1, 10 μM HK3 and the corresponding vehicles (HCl and DMSO with or without HCl) alone for 24 h were also included as treatments.
(§8) For the measurement of the pro-fibrotic proteins, Western Blotting was performed. Proteins were extracted from whole cell lysate of LX2 cells using RIPA lysis buffer containing 50 mmol/l Tris-HCl (pH 8.0), 150 mmol/l NaCl, 1% IGEPAL® CA-630, 0.5% sodium deoxycholate, 0.1% sodium dodecyl sulfate, 10% PhosSTOP Phosphatase Inhibitor Cocktail (Roche, Basel, Switzerland) and 10% cOmplete Mini Protease Inhibitor Cocktail (Roche). Lysates were centrifuged at 14850×g for 15 min at 4° C. Then, the total protein content of the lysates was determined using a bicinchoninic acid protein assay (ThermoFisher Scientific) in accordance with the manufacturer's instructions. The quantification of protein abundance was performed by Simple Western size-based assays using a 12-230 kDa and 66-440 kDa Separation Module (ProteinSimple, San Jose, CA, USA) according to the manufacturer's instructions. This fully automated Western blotting system is based on a capillary electrophoresis technology. The separation, immobilization to the capillary wall via a proprietary, photoactivated capture chemistry and immunodetection of the proteins using a horseradish peroxidase (HRP)-conjugated secondary antibody and chemiluminescent substrate take place directly in the capillary without gel separation and transfer steps to blotting paper. The chemiluminescence is measured at multiple exposure times and automatically quantified by the Compass for Simple Western software (version 4.1.0) (ProteinSimple). The chemiluminescent signal for immunodetected proteins, which can be represented as an electropherogram or virtual blot-like image, is automatically quantified by calculation of the area under the curve of the peak.
(§9) The software reports the molecular weight, the area (in an arbitrary unit and in percent) and signal to noise ratio for each protein detected. The primary antibodies for the recognition of endogenous levels of total alpha-1 type 1 collagen (COL1A1) protein (#72026) and total fibronectin 1 (FN1) protein (#26836) were purchased from Cell Signaling Technology (Danvers, MA, USA). The anti-rabbit HRP-linked secondary antibody was from ProteinSimple. […]
as §6

[5] = system: alpha-1 type 1 collagen (COL1A1) protein in LX2 cells; test: Simple Western of COL1A1 protein in TGF-β1-stimulated LX2 hepatic stellate cells; format: cell-based, human; conditions: 5 ng/ml TGF-β1, 24 h, LX2 cells
Protocol: as §7, §8, §9, §6

[6] = system: interleukin-6 (IL-6) secretion by LX2 cells; test: Olink Inflammation immunoassay of LX2 supernatants: IL-6; format: cell-based, human; conditions: 5 ng/ml TGF-β1
Protocol: as §7
LX2 cells were cultured and treated as described in Example 1. After the incubation time, the supernatants of LX2 cells were collected, centrifuged for 10 min at 2000×g at 4° C. and transferred to new tubes to measure 92 proteins in the cell culture supernatants simultaneously using the Olink Inflammation multiplex immunoassay (Olink proteomics, Uppsala, Sweden). This panel covers 92 proteins, including pro- and anti-inflammatory cytokines, growth factors, chemokines and factors involved in biological processes such as apoptosis, inflammatory and immune response, cell adhesion, chemotaxis, or fibrosis. This protein quantification method is based on a proximity extension assay technology, which combines a dual-recognition immunoassay using two matched antibodies labelled with DNA oligonucleotides, with a polymerase chain reaction (PCR) amplification and a microfluidic quantitative real-time PCR as readout. The biomarker concentrations are given as normalized protein expression (NPX) values, which were generated from the threshold cycle values from the qPCR, and represent an arbitrary unit on a log 2 scale.
as §6

[7] = system: vascular endothelial growth factor A (VEGFA) secretion by LX2 cells; test: Olink Inflammation immunoassay of LX2 supernatants: VEGFA; format: cell-based, human; conditions: 5 ng/ml TGF-β1
Protocol: as §4, §5, §6

Question: For `CCCCCCCCCCCCCCCC(=O)O` [palmitate, reference compound], which activity at 200 µM ([1]; Hepatocyte, palmitate 200 μM alone, read-out: caspase 3/7 activity, % of control) is on record?
Answer: The activity at 200 µM was 129%.

Question: What about the activity at 200 µM ([2]; Homo sapiens, palmitate 200 μM alone, 24 h, read-out: caspase 3/7 activity, % of control) of the same compound?
Answer: Its activity at 200 µM is 429%.

Question: Which “increased secretion of LIF compared to untreated LX2 cells” value [3] does the source give for “TGF-β1: recombinant TGF-β1 (R&D Systems), positive control for the hepatic stellate cell activation” here?
Answer: Its value is 35.40±9.76 fold.

Question: And the “increase of protein levels of FN1 compared to untreated cells” value [4]?
Answer: Its value is 3.0±0.2 fold.

Question: What about the “increase of protein levels of COL1A1 compared to untreated cells” value [5] of the same compound?
Answer: Its value is 2.6±0.2 fold.

Question: And the “increased secretion of IL-6 compared to untreated LX2 cells” value [6]?
Answer: Its value is 4.99±2.01 fold.

Question: And the “increased secretion of VEGFA compared to untreated LX2 cells” value [7]?
Answer: Its value is 13.89±2.40 fold.

Question: With `COC[C@@H]1CCCN1S(=O)(=O)c1ccc2c(c1)C(=O)C(=O)N2` [Caspase 3/7 inhibitor, reference compound] as the compound, how does the “caspase 3/7 activity, % of control” value ([1]; 100 μM inhibitor + palmitate 200 μM) read?
Answer: Its value is 21.23%±4.33%.

Question: What about the “caspase 3/7 activity, % of control” value ([2]; 100 μM caspase 3/7 inhibitor + palmitate 200 μM) of the same compound?
Answer: The value was 29.65%±24.56%.

Question: With `CN[C@@H]1C[C@H]2O[C@@](C)([C@@H]1OC)n1c3ccccc3c3c4c(c5c6ccccc6n2c5c31)C(=O)NC4` [Staurosporine, reference compound] as the compound, how does the activity at 2 µM ([2]; Homo sapiens, 2 μM, positive control) read?
Answer: The activity at 2 µM was 687%.
